The nature of the data set: gradient 5% acetonitrile 3 min, to 50% in 2 min, to 85% in 15 min, held 3 min, 100 µL/min. Conditions: column: Zorbax Extend-C18 2.1 x 50 mm; eluents: water / acetonitrile, 0.1% formic acid. The method in brief: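 The mobile phases were water and acetonitrile, each with 0.1% formic acid, pumped at 100 μL/min through a Zorbax Extend-C18 column (2.1 × 50 mm, 1.8 μm). Pure standards were injected as mixtures of ~100 molecules and detected by a quadrupole time-of-flight mass spectrometer in positive and negative ionization mode. Retention time came from computationally picked adduct peaks, each inspected by hand.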
For `Cc1oc(-c2ccccc2)nc1Cc1noc(-c2cccc(F)c2)n1`, the RP-LC retention time stood at 1160 s.

Compound `O=C(c1ccsc1)N1CCC(N(C(=O)C2CC2)C2CCOCC2)CC1` showed an RP-LC retention time of 662 s.

The compound `CC(C)CN1CCn2cc(C(=O)N3CCN(c4ccccc4)CC3)nc2C1` had an RP-LC retention time of 605 s.

As for `Cc1ccc(Cn2c(=O)n(CCNC(=O)c3cnccn3)c3ncccc32)cc1`, the RP-LC retention time stood at 737 s.

In turn, `O=C(CCC1CCN(c2cc(NC3CC3)ncn2)CC1)NCc1cccnc1` displayed an RP-LC retention time of 548 s.

The compound `CS(=O)(=O)N(C1CCOCC1)C1CN(C(=O)Nc2ccc(F)cc2F)C1` returned an RP-LC retention time of 664 s.

The compound `O=C(Cn1cccc(-c2nc(-c3ccc(Br)cc3)no2)c1=O)Nc1cccc(F)c1` yielded an RP-LC retention time of 992 s.

Consider `CCOC(=O)c1ccc(N2C=C(C(=O)OC)S(=O)(=O)c3cc(F)ccc32)cc1`, for which the RP-LC retention time stood at 861 s.

Turning to `O=C(Cc1cc(-c2ccc(Cl)cc2)on1)NCCCn1ccnc1`, the RP-LC retention time came out at 582 s.

For the compound `Cc1ccc(OCC(=O)N(Cc2ccc(N(C)C)cc2)Cc2ccco2)cc1`, the RP-LC retention time was found to be 795 s.

Take `Cc1cccc2c(C(=O)NC3CC3)cc(=O)[nH]c12`: the RP-LC retention time was found to be 614 s.

Turning to `Cc1cccc(C)c1-n1ccn(Cc2nc(-c3ccc(F)c(Cl)c3)no2)c(=O)c1=O`, the RP-LC retention time turned out to be 976 s.

`Cc1ccc(Sc2nccnc2N2CCC(C(=O)N3CCN(c4ccccn4)CC3)CC2)cc1`: the RP-LC retention time stood at 706 s.

Compound `COC(=O)c1ccc2c(=O)n(Cc3ccc(F)cc3)c(N3CCOCC3)nc2c1` showed an RP-LC retention time of 975 s.

For `Cc1ccc(-n2nc(N3CCCN(C(=O)c4n[nH]c5c4CCCC5)CC3)ccc2=O)cc1`, the RP-LC retention time amounted to 679 s.

`COCCN1C(=O)CCc2cc(NS(=O)(=O)c3cc(C)cc(C)c3)ccc21`: the RP-LC retention time came to 816 s.

Compound `COc1ccc(CNC(=O)c2[nH]c3cc(C)sc3c2CN(C)C)c(OC)c1` came in with an RP-LC retention time of 691 s.

`Cc1noc(Cc2nnc(-c3cccc(F)c3)o2)n1` returned an RP-LC retention time of 730 s.

The compound `C[C@H]1CN(C(=O)CSc2ccccc2)C[C@@H]1c1nc(-c2cccnc2)no1` gave an RP-LC retention time of 823 s.

`O=C(C1CCN(c2nc(-c3ccc(Cl)cc3)no2)CC1)N1CCN(c2ncccn2)CC1` displayed an RP-LC retention time of 968 s.

`Cc1cccc(NC(=O)C2CCN(S(=O)(=O)c3c(C)[nH]c(C)c3C(=O)N3CCCCC3)CC2)n1` yielded an RP-LC retention time of 642 s.

`COc1ccc(NC(=O)C2c3ccccc3C(=O)N3CCC(C)CC23)c(OC)c1` (centres undefined) yielded an RP-LC retention time of 867 s.

As for `Cc1ccccc1S(=O)(=O)N1CCC(c2noc(-c3cccnc3)n2)C1` (centres undefined), the RP-LC retention time worked out at 908 s.

Take `CCC(C)NC(=O)c1nc(Cn2c(=O)oc3ccc(Cl)cc32)no1` (centres undefined): the RP-LC retention time stood at 922 s.

`COC1CCC12CCN(C(=O)Nc1ccc3c(c1)OCCO3)CC2` (centres undefined) gave an RP-LC retention time of 742 s.

For `CCc1ccccc1NC(=O)c1cn(CC2CCCO2)cc2c(=O)n(-c3ccccc3)nc1-2` (centres undefined), the RP-LC retention time was found to be 1060 s.

Turning to `Cc1ccc(=O)n(CCNC(=O)c2cc(C)oc2C)n1`, the RP-LC retention time came to 616 s.

Compound `O=C(NCC1CCCO1)C1CCN(c2ncccc2-c2nc(-c3cccc(Cl)c3)no2)CC1` (centres undefined) showed an RP-LC retention time of 990 s.

On to `Cc1cc(C)cc(NC(=O)Cn2nc(N3CCCC(C)C3)c3ccccc3c2=O)c1` (centres undefined), for which the RP-LC retention time was 1240 s.

The compound `C[C@@H]1OC(=O)[C@H]2C[C@H]3CCCC[C@@H]3[C@@H](/C=C/[C@H]3CCC[C@H](C)N3C)[C@@H]12` registered an RP-LC retention time of 745 s.

In turn, `Cc1cc(C)c2c(-n3cccc3)nn(Cc3ccc(C(=O)NCc4ccco4)cc3)c2n1` gave an RP-LC retention time of 1060 s.

Compound `Cc1ccc(-n2nnnc2CN2CCN(S(=O)(=O)N(C)C)CC2)cc1` showed an RP-LC retention time of 756 s.

Regarding `COc1ccc(Cl)cc1S(=O)(=O)NCCc1c[nH]c2ncccc12`, the RP-LC retention time was found to be 654 s.

Take `O=C(NCc1ccccc1)c1csc(Nc2ccncn2)n1`: the RP-LC retention time turned out to be 687 s.

For the compound `O=C(NCCc1csc(-c2ccccc2)n1)C1CCN(C(=O)Cc2ccc(Cl)cc2)CC1`, the RP-LC retention time came out at 866 s.

Take `O=C1CC(c2ccccc2F)Cc2nc(N3CCN(c4ccccn4)CC3)ncc21` (centres undefined): the RP-LC retention time turned out to be 702 s.

The compound `Fc1ccccc1-c1nn2c(CSc3ccccc3)nnc2s1` registered an RP-LC retention time of 981 s.

`CCN1CCCC1CNc1onc(-c2ccc(Cl)cc2)c1C(=O)OC` (centres undefined) displayed an RP-LC retention time of 699 s.

As to `O=C(NCCc1ccccc1)C1CC(=O)N(CCc2c[nH]c3ccc(Cl)cc23)C1` (centres undefined), the RP-LC retention time stood at 809 s.

In turn, `O=C(NCCc1c[nH]c2ccccc12)c1nnc2n(c1=O)CCN2c1ccc(F)cc1` came in with an RP-LC retention time of 692 s.

`COc1ccc(-c2ccnc3nc(CC(C)C)nn23)cc1OC` came in with an RP-LC retention time of 824 s.

For `O=C(c1ccc(Cl)s1)N1CC(c2nc(-c3cccc(C(F)(F)F)c3)no2)C1`, the RP-LC retention time came out at 1090 s.

For the compound `O=C(c1cccc(Br)c1)N1CCc2nc(-c3ccc(Cl)cc3)ncc2C1`, the RP-LC retention time stood at 1160 s.

`Cc1cc2n(n1)CCC(=O)N2CCCC(=O)NCCc1cccs1`: the RP-LC retention time stood at 648 s.

`Cc1ccc(NC(=O)CSc2cc(N3CCCC(C)C3)ncn2)c(C)c1` (centres undefined): the RP-LC retention time worked out at 1100 s.

Turning to `CC(C)n1c(=O)oc2cc(-c3noc(COc4ccc(Cl)cc4)n3)ccc21`, the RP-LC retention time came out at 1170 s.

Compound `c1cncc(-c2noc(COC3CCCN(C4CCCC4)C3)n2)c1` (centres undefined) had an RP-LC retention time of 585 s.

For `O=C(NCc1ccc2c(c1)OCO2)c1nc2ccccn2c1-c1ccsc1`, the RP-LC retention time came out at 787 s.

As for `COc1ccccc1-c1nnc(-c2cccc(S(=O)(=O)N3CCCC3)c2)o1`, the RP-LC retention time came to 885 s.

In turn, `CSc1cccc(NC(=O)NCCc2cn(C)c3ncccc23)c1` came in with an RP-LC retention time of 716 s.

For `COC(=O)c1c(C)c(C(=O)C(C)N(Cc2ccc(F)cc2)C(=O)C(C)C)c(C)n1C` (centres undefined), the RP-LC retention time was found to be 990 s.

`CN1CCC(N2CCN(c3ncccc3-c3nnc(-c4ccc(Cl)cc4)o3)CC2)CC1` showed an RP-LC retention time of 586 s.

`COC(=O)c1ccc2c(=O)n(-c3ccc(OC)c(OC)c3)c(N3CCCC3)nc2c1` had an RP-LC retention time of 751 s.

Consider `O=C(CCCN1C(=O)c2cccnc2Oc2ccccc21)N1CCN(c2ccccn2)CC1`, for which the RP-LC retention time is 605 s.

Take `Cc1ccc2nc(SCc3noc(CCC(=O)Nc4nc(-c5ccccc5)cs4)n3)[nH]c2c1`: the RP-LC retention time came to 802 s.

As to `CC(C)CCn1nc(-c2nc(-c3cccc(Cl)c3)no2)ccc1=O`, the RP-LC retention time was 1310 s.

For the compound `O=C(NC1CCc2nn(CC3CC3)c(=O)n2CC1)c1cc(C2CC2)[nH]n1` (centres undefined), the RP-LC retention time was determined as 627 s.

For the compound `CC(C)[C@@H]1CC[C@@H](C)C[C@@H]1P(=O)(c1ccccc1)c1ccccc1`, the RP-LC retention time worked out at 1290 s.

`CN(C)c1ccc(C(=O)Nc2cc(-c3ccsc3)no2)cc1` displayed an RP-LC retention time of 961 s.

With `CCn1c(N)c(C(=O)NC)c(=O)c2ccc(C#C[C@@](C)(O)COC)nc21`, the RP-LC retention time is 698 s.

As to `Cc1[nH]c(C(=O)N2CCCC(C(=O)N3CCN(c4ccccc4)CC3)C2)c(C)c1C(=O)OC(C)C` (centres undefined), the RP-LC retention time is 892 s.

`COc1cccc(NC(=O)N2CCOc3ccc(C)cc32)c1` yielded an RP-LC retention time of 968 s.

In turn, `CC1=C(c2ccc(F)cc2)S(=O)(=O)N=C1N1CCC(C(=O)NC(C)C)CC1` yielded an RP-LC retention time of 741 s.

The compound `Cn1cccc1C(=O)N1CCC(OCc2nc(C3CC3)no2)CC1` registered an RP-LC retention time of 799 s.

Consider `COCCN1C(=O)CC[C@]2(C(=O)NCc3ccc(OC)cc3OC)CCCC[C@@H]12`, for which the RP-LC retention time was determined as 698 s.

For the compound `Cc1ccc(-c2ncc(C#N)c(=O)n2CC(=O)NCc2ccccc2Br)cc1`, the RP-LC retention time stood at 1010 s.

`Cc1ccc(C(=O)NC2CCN(c3cc(-c4ccccc4)[nH]n3)C2)s1` (centres undefined) gave an RP-LC retention time of 708 s.

In the case of `N#Cc1cccc(NC(=O)Cn2cccc(-c3nc(-c4ccc(F)cc4)no3)c2=O)c1`, the RP-LC retention time was found to be 859 s.

As to `Cc1ccccc1NC(=O)N1CCC2(CC1)NC(=O)c1cc(F)ccc1N2C`, the RP-LC retention time was 1070 s.

Compound `CCc1nn2c(CNC(=O)c3ccc(C(F)(F)F)cc3)c(C)nc2s1` showed an RP-LC retention time of 714 s.

Compound `CN1CC(CNS(=O)(=O)c2ccccc2C(F)(F)F)C2(CCCCC2)C1` (centres undefined) came in with an RP-LC retention time of 696 s.

For the compound `Cc1nnc(C(=O)Nc2cccc(C(=O)NCCc3c[nH]c4ccc(Cl)cc34)c2)s1`, the RP-LC retention time was determined as 847 s.

Compound `Cc1ccc(CNC(=O)CN2C(=O)C3CCCCN3c3ccc(S(=O)(=O)N(C)C)cc32)o1` (centres undefined) showed an RP-LC retention time of 867 s.

`Cc1oc2c(c1C(=O)Nc1ccc(F)cc1Br)C1=NC(C)(C)CN1C=N2`: the RP-LC retention time was determined as 671 s.

For the compound `Cc1ccc(N2CCN(Cc3nc(-c4ccc(N5CCCC(C)C5)nc4)no3)CC2)cc1` (centres undefined), the RP-LC retention time was found to be 1060 s.

Take `NC(=O)c1[nH]c2ccc(F)cc2c1N1CCCC1=O`: the RP-LC retention time was determined as 637 s.

As for `Cc1c(CCN)ccc2c1[nH]c1ccccc12`, the RP-LC retention time worked out at 697 s.

For the compound `CCCC(=O)N1CCc2c([nH]c3ccccc23)C1c1ccc(OC)cc1` (centres undefined), the RP-LC retention time was determined as 720 s.

In turn, `CCOc1ccc2nc(N3CCCC(C(=O)NCCCN4CCOCC4)C3)sc2c1` (centres undefined) gave an RP-LC retention time of 632 s.

Values taken from the METLIN SMRT retention time set (Domingo-Almenara et al. 2019).
